Experimental data: patent US4138554A, “7-[D-α-(4-Hydroxy-1,5-naphthyridine-3-carboxamido)-α-phenyl (and p-hydroxyphenyl)acetamido]-3-carbamoyloxymethyl-3-cephem-4-carboxylic acids” (priority 1977, dated 1979)
Where two headings read alike, the source gives them in different places.

How the values were obtained:
Type in all cases: cell-based
[1] = tested on: S. aureus; assay: MIC by serial two-fold agar dilution (Mueller-Hinton agar), S. aureus; settings: Staphylococcus aureus
Description: (§1) Minimum inhibitory concentrations (MIC) of BB-S520 were determined by serial two-fold agar dilution method using Steers' apparatus on Meuller-Hinton agar plate against 31 test organisms for the primary screening and also against 61 strains of Pseudomonas aeruginosa for the secondary evaluation. The results are shown in Table 1 and Table 2 along with those of BB-S514 and sulbenicillin.
(§2) Minimum inhibitory concentrations (MIC) of cephalosporins in the present study were determined by serial two-fold agar dilution method using Steers' apparatus on Mueller-Hinton agar plate against 31 test organisms for the primary screening and also against 61 strains of Pseudomonas aeruginosa for the secondary evaluation.

[2] = tested on: E. coli; assay: MIC by serial two-fold agar dilution (Mueller-Hinton agar), E. coli; settings: Escherichia coli, read-out: MIC
Description: as §1, §2

[3] = tested on: K. pneumoniae; assay: MIC by serial two-fold agar dilution (Mueller-Hinton agar), K. pneumoniae; settings: Klebsiella pneumoniae, K. pneumoniae A9977, Table 6
Description: as §1, §2

[4] = tested on: Klebsiella sp.; assay: MIC by serial two-fold agar dilution (Mueller-Hinton agar), Klebsiella sp.; settings: Klebsiella sp. A20452, Table 6; read-out: MIC
Description: as §1, §2

[5] = tested on: E. cloacae; assay: MIC by serial two-fold agar dilution (Mueller-Hinton agar), E. cloacae; settings: Enterobacter cloacae
Description: as §1, §2

[6] = tested on: P. mirabilis; assay: MIC by serial two-fold agar dilution (Mueller-Hinton agar), P. mirabilis; settings: Proteus mirabilis; P. mirabilis A9900, Table 6; read-out: MIC
Description: as §1, §2

[7] = tested on: P. vulgaris; assay: MIC by serial two-fold agar dilution (Mueller-Hinton agar), P. vulgaris; settings: Proteus vulgaris; P. vulgaris A9539, Table 6; read-out: MIC
Description: as §1, §2

[8] = tested on: P. morganii; assay: MIC by serial two-fold agar dilution (Mueller-Hinton agar), P. morganii; settings: Morganella morganii; P. morganii A9553, Table 6; read-out: MIC
Description: as §1, §2

[9] = tested on: S. enteritidis; assay: MIC by serial two-fold agar dilution (Mueller-Hinton agar), S. enteritidis; settings: Salmonella enterica; S. enteritidis A9531, Table 6; read-out: MIC
Description: as §1, §2

[10] = tested on: S. marcescens; assay: MIC by serial two-fold agar dilution (Mueller-Hinton agar), S. marcescens; settings: Serratia marcescens; S. marcescens A20019, Table 6; read-out: MIC
Description: as §1, §2

[11] = tested on: P. aeruginosa; assay: MIC by serial two-fold agar dilution (Mueller-Hinton agar), P. aeruginosa, primary screening
Description: as §1, §2

[12] = tested on: Pseudomonas sp.; assay: MIC by serial two-fold agar dilution (Mueller-Hinton agar), Pseudomonas sp.; settings: Pseudomonas sp. A20358, Table 6
Description: as §2

[13] = tested on: Pseudomonas aeruginosa; assay: MIC by agar dilution against 61 strains of Pseudomonas aeruginosa, secondary evaluation; settings: for MIC: Pseudomonas aeruginosa
Description: as §1, §2

CC1(C)S[C@@H]2[C@H](NC(=O)C(C(=O)O)c3ccccc3)C(=O)N2[C@H]1C(=O)O (stereo partly shown) [Carbenicillin]
25 µg/mL: MIC ([1]; S. aureus Smith A15907, Table 6) | MIC ([1]; S. aureus Smith A20701, Table 6, read-out: MIC) | MIC ([11]; Pseudomonas aeruginosa, P. aeruginosa A9843, Table 6, read-out: MIC) | MIC ([11]; Pseudomonas aeruginosa, P. aeruginosa A9930, Table 6, read-out: MIC)
6.3 µg/mL: MIC ([1]; S. aureus Smith A20240, Table 6, read-out: MIC) | MIC ([2]; E. coli A9435, Table 6) | MIC [4] | MIC [12]
0.8 µg/mL: MIC ([2]; E. coli A10664, Table 6) | MIC [9]
> 100 µg/mL: MIC ([2]; E. coli A20366, Table 6) | MIC ([2]; E. coli A20898, Table 6) | MIC [8]
0.2 µg/mL: MIC ([1]; S. aureus Smith A9537, Table 6, read-out: MIC) | MIC ([2]; E. coli A9844, Table 6)
0.4 µg/mL: MIC ([2]; E. coli NIHJ, Table 6) | MIC [6]
3.1 µg/mL: MIC ([1]; S. aureus BX-1633 A9606, Table 6, read-out: MIC) | MIC ([1]; S. aureus Smith A20239, Table 6, read-out: MIC) | MIC ([2]; E. coli A20520, Table 6) | MIC [3] | MIC ([5]; E. cloacae A9656, Table 6) | MIC ([5]; E. cloacae A9659, Table 6) | MIC [7] | MIC [10]
12.5 µg/mL: MIC ([5]; E. cloacae A9657, Table 6) | MIC ([11]; P. aeruginosa A20229, Table 6) | MIC ([11]; Pseudomonas aeruginosa)
100 µg/mL: MIC ([2]; E. coli A20732, Table 6) | MIC ([11]; Pseudomonas aeruginosa, P. aeruginosa A20717, Table 6, read-out: MIC)
1.6 µg/mL: MIC ([2]; E. coli Juhl A15119, Table 6)

CCN1CCN(C(=O)NC(C(=O)N[C@@H]2C(=O)N3[C@@H]2SC(C)(C)[C@@H]3C(=O)O)c2ccccc2)C(=O)C1=O (stereo partly shown) [T-1220]
12.5 µg/mL: MIC ([13]; BBRI Pa-No. 1, D15, Table 7, read-out: MIC) | MIC ([13]; BBRI Pa-No. 62, Table 7, read-out: MIC)
544%: Rel. Act. (SBPC=100%) ([13]; 61 strains of Pseudomonas aeruginosa, Table 7)
25 µg/mL: MIC ([13]; BBRI Pa-No. 6, No. 5, Table 7, read-out: MIC) | MIC ([13]; BBRI Pa-No. 17, H6 D114, Table 7, read-out: MIC) | MIC ([13]; BBRI Pa-No. 42, Table 7, read-out: MIC)
6.3 µg/mL: MIC ([13]; BBRI Pa-No. 12, Table 7, read-out: MIC) | MIC ([13]; BBRI Pa-No. 15, Table 7, read-out: MIC) | MIC ([13]; BBRI Pa-No. 20, Table 7, read-out: MIC) | MIC ([13]; BBRI Pa-No. 28, CPH1C527/72, Table 7, read-out: MIC) | MIC ([13]; BBRI Pa-No. 30, Table 7, read-out: MIC) | MIC ([13]; BBRI Pa-No. 33, Table 7, read-out: MIC) | MIC ([13]; BBRI Pa-No. 35, Table 7, read-out: MIC) | MIC ([13]; BBRI Pa-No. 38, Table 7, read-out: MIC) | MIC ([13]; BBRI Pa-No. 43, Table 7, read-out: MIC) | MIC ([13]; BBRI Pa-No. 57, Table 7, read-out: MIC) | MIC ([13]; BBRI Pa-No. 58, Table 7, read-out: MIC) | MIC ([13]; BBRI Pa-No. 67, Table 7, read-out: MIC) | MIC ([13]; BBRI Pa-No. 68, Table 7, read-out: MIC) | MIC ([13]; BBRI Pa-No. 69, Table 7, read-out: MIC) | MIC ([13]; GN4925, BBRI Pa-No. 44, GN4925, Table 7, read-out: MIC)
3.1 µg/mL: MIC ([13]; BBRI Pa-No. 2, VA, Table 7, read-out: MIC) | MIC ([13]; BBRI Pa-No. 4, H9 D113, Table 7, read-out: MIC) | MIC ([13]; BBRI Pa-No. 7, Table 7, read-out: MIC) | MIC ([13]; BBRI Pa-No. 8, Table 7, read-out: MIC) | MIC ([13]; BBRI Pa-No. 9, Yale, Table 7, read-out: MIC) | MIC ([13]; BBRI Pa-No. 11, Table 7, read-out: MIC) | MIC ([13]; BBRI Pa-No. 21, Table 7, read-out: MIC) | MIC ([13]; BBRI Pa-No. 23, Table 7, read-out: MIC) | MIC ([13]; BBRI Pa-No. 29, D122, Table 7, read-out: MIC) | MIC ([13]; BBRI Pa-No. 32, Table 7, read-out: MIC) | MIC ([13]; BBRI Pa-No. 34, Table 7, read-out: MIC) | MIC ([13]; BBRI Pa-No. 37, Table 7, read-out: MIC) | MIC ([13]; BBRI Pa-No. 41, Table 7, read-out: MIC) | MIC ([13]; BBRI Pa-No. 44 (unnamed strain), Table 7, read-out: MIC) | MIC ([13]; BBRI Pa-No. 51, Table 7, read-out: MIC) | MIC ([13]; BBRI Pa-No. 52, Table 7, read-out: MIC) | MIC ([13]; BBRI Pa-No. 53, Table 7, read-out: MIC) | MIC ([13]; BBRI Pa-No. 54, Table 7, read-out: MIC) | MIC ([13]; BBRI Pa-No. 55, Table 7, read-out: MIC) | MIC ([13]; BBRI Pa-No. 56, Table 7, read-out: MIC) | MIC ([13]; BBRI Pa-No. 60, Table 7, read-out: MIC) | MIC ([13]; BBRI Pa-No. 61, Table 7, read-out: MIC) | MIC ([13]; BBRI Pa-No. 64, Table 7, read-out: MIC) | MIC ([13]; BBRI Pa-No. 66, Table 7, read-out: MIC) | MIC ([13]; BBRI Pa-No. 70, K-Ps102(CR-102), Table 7, read-out: MIC) | MIC ([13]; GN315, BBRI Pa-No. 27, GN315, Table 7, read-out: MIC)
0.8 µg/mL: MIC ([13]; BBRI Pa-No. 16, No. 130, Table 7, read-out: MIC) | MIC ([13]; BBRI Pa-No. 19, Table 7, read-out: MIC)
> 100 µg/mL: MIC ([13]; BBRI Pa-No. 10, Table 7, read-out: MIC) | MIC ([13]; BBRI Pa-No. 24, Table 7, read-out: MIC)
1.6 µg/mL: MIC ([13]; BBRI Pa-No. 3, 1449VA, Table 7, read-out: MIC) | MIC ([13]; BBRI Pa-No. 5, N4865KC, Table 7, read-out: MIC) | MIC ([13]; BBRI Pa-No. 14, Table 7, read-out: MIC) | MIC ([13]; BBRI Pa-No. 25, Table 7, read-out: MIC) | MIC ([13]; BBRI Pa-No. 26, Ps32, Table 7, read-out: MIC) | MIC ([13]; BBRI Pa-No. 31, Table 7, read-out: MIC) | MIC ([13]; BBRI Pa-No. 39, Table 7, read-out: MIC) | MIC ([13]; BBRI Pa-No. 59, Table 7, read-out: MIC) | MIC ([13]; BBRI Pa-No. 65, Table 7, read-out: MIC)
50 µg/mL: MIC ([13]; BBRI Pa-No. 18, H8 D121, Table 7, read-out: MIC)
4.3 µg/mL: MIC ([13]; 61 strains of Pseudomonas aeruginosa, Table 7, read-out: Geometric Mean of MIC)
0.4 µg/mL: MIC ([13]; BBRI Pa-No. 36, Table 7, read-out: MIC)
